Source: patent US20230132582A1, “NOVEL USE OF ASPIRIN COMPOUND IN INCREASING NUCLEIC ACID EXPRESSION” (priority 2020, published 2023)

Key:
[1] = system: IFN-β; assay: Serum IFN-β ELISA after AAV8, AAV9 or AAV843 injection in aspirin-treated mice (Example 4); assay type: in vivo, C57BL/6J mice
Method: (§1) Blood samples of mice were collected by retro-orbital bleeding. Half of the volume of blood samples was added with sodium citrate at a ratio of 1:9 for anticoagulation, mixed, centrifuged within 30 minutes (6000 rpm, 5 mins), and the supernatant was collected as the mouse plasma, for detection of the expression of Gluc. The remaining blood sample was left at room temperature for 2 hours to separate the serum, centrifuged at 6000 rpm for 15 min, and the supernatant was collected as the mouse serum sample. The contents of IFN-α and IFN-β were determined by using Mouse IFN-β ELISA kit (720131-2, Shanghai Mlbio Co., Ltd.), LEGEND MAX™ Mouse IFN-β ELISA Kit (439407, BioLegend), and Mouse IFN-α ELISA kit (706291-2, Shanghai Mlbio Co., Ltd.).
(§2) The injection dose of 50 mg/kg aspirin was used in further study of AAV-mediated expression of exogenous genes by three different AAV serotypes. The study design was similar to that of Example 2. Briefly, for each AAV serotype (i.e., AAV8-Lxp3.3-Gluc, AAV9-Lxp3.3-Gluc, or AAV843-Lxp3.3-Gluc), male C57BL/6J mice (purchased from Shanghai Jiesijie Experimental Animals Co., Ltd.) (n=4) with an average weight of 20 g were divided into two groups. One group was injected with aspirin at 50 mg/kg for 7 consecutive days, and the other group was injected with 5% castor oil (in PBS buffer (catalogue number: 02-024-1ACS, BI)) as a control. On Day 8, 5×10^12 vg/kg of AAV8-Lxp3.3-Gluc, AAV9-Lxp3.3-Gluc, or AAV843-Lxp3.3-Gluc virus (diluted in 150-200 μl PBS) was delivered to each mouse by tail vein injection. Blood sample were collected and expression level of luciferase was detected following the same methods as described in Example 2.
(§3) In the study described in Example 3, the level of IFN-α and IFN-β were determined by using Mouse IFN-β ELISA kit (720131-2, Shanghai Mlbio Co., Ltd.), LEGEND MAX™ Mouse IFN-β ELISA Kit (439407, BioLegend), and Mouse IFN-α ELISA kit (706291-2, Shanghai Mlbio Co., Ltd.) according to the user's manual.

[2] = system: expression level of the transgene (AAV); assay: Co-administration of AAV and aspirin, transgene expression (preliminary); assay type: in vivo; settings: co-administration of AAV and aspirin in one formulation or separate formulations at the same time; preliminary results
Description: Studies have been conducted for co-administration of AAV and aspirin either in one formulation or in separate formulations but at the same time.

[3] = system: expression of luciferase from AAV8-Lxp3.3-Gluc; assay: Luciferase expression after AAV8-Lxp3.3-Gluc injection in aspirin-treated mice (Example 3); assay type: in vivo, C57BL/6J mice
Method: as §1
(§4) Coelenterazine h (40906ES02, Shanghai Yeasen Biotech Co., Ltd.) buffer was prepared first: to 500 mL of ultra-pure water was added 29.72 g of sodium ascorbate, and then 50 mL of Tris-HCl (1 mol/L, pH 7.4). […] of the above working solution is added to a […], and the relative light unit (RLU) was detected with a Synergy H1 multifunctional microplate reader.
(§5) The injection dose of 50 mg/kg aspirin was used in further study of AAV-mediated expression of exogenous genes by three different AAV serotypes. […] Blood sample were collected and expression level of luciferase was detected following the same methods as described in Example 2.

[4] = system: IFN-α; assay: Serum IFN-α ELISA after AAV9 injection with aspirin at different doses (Example 2); assay type: in vivo, C57BL/6J mice; settings: Day 3 post AAV9 injection, vs control group (FIG. 2)
Method: (§6) Male C57BL/6J mice (purchased from Shanghai Jiesijie Experimental Animals Co., Ltd.) (n=4) with an average weight of 20 g were divided into six groups. Aspirin was used for intraperitoneal injection for 7 consecutive days (Day −7 to Day −1), at doses of 1 mg/kg, 15 mg/kg, 30 mg/kg, 50 mg/kg, 100 mg/kg, respectively, to five groups of mice. The sixth group was injected with 5% castor oil (in PBS buffer (catalogue number: 02-024-1ACS, BI)) as a control. On Day 0, AAV9-Lxp3.3-Gluc virus was injected intravenously (5×10^12 vg/kg) to each mouse in every group, and expression of luciferase was detected from Day 1 onwards.
as §1

[5] = system: Gluc expression from AAV9-CB-Gluc in brain; assay: Gluc mRNA and enzymatic activity in brain after AAV9-CB-Gluc with aspirin (Example 6); assay type: in vivo, mice; settings: for enzymatic activity level of Gluc, up-regulation vs non-treatment group: p<0.01 (FIG. 7B)
Method: (§7) Expression of exogenous gene was detected in mice either pre-treated with Aspirin, or co-administered with Aspirin. AAV9-CB-Gluc was prepared according to methods provided in Example 1, except that nucleic acid sequence for CB promoter (see SEQ ID NO: 3) was used. In brief, Aspirin was pre-administrated to a group of mice at 50 mg/kg by intraperitoneal injection for 7 days, followed by administration of AAV9-CB-Gluc (5×10^13 vg/kg) at day 8. In comparison, a group of mice without pre-administration of Aspirin was administrated with Aspirin at 50 mg/kg simultaneously in combination with AAV9-CB-Gluc. 15 days after the AAV9-CB-Gluc administration, the mice were sacrificed, and brain and liver were collected for determination of expression Gluc.

[6] = system: IDS enzyme activity in brain (AAV9-CB-IDS); assay: IDS enzyme activity in brain of MPSII mice after AAV9-CB-IDS with aspirin pre-treatment (Example 7); assay type: in vivo, B6N.Cg-Ids^tm1Muen/J mice (MPSII model)
Method: The effects of aspirin on improving the expression of therapeutic transgene in brain were determined. AAV9-CB-IDS vector were produced using methods described in Example 1, except that iduronate 2-sulfatase (IDS) gene expression cassette was inserted between the AAV ITRs. The gene encoding IDS was provided in SEQ ID NO: 7 and the protein sequence of IDS was provided in SEQ ID NO: 11. […] A group of wild-type control mice was used as control. The AAV9-CB-IDS vector for treating MPSII was administrated as described in Example 1, at a dose of 3×10^13 vg/kg (i.e. 3E13 group) or 1×10^14 vg/kg (i.e. 1E14 group) to mice pre-treated with aspirin injection. One month after the AAV9-CB-IDS injection, the IDS enzyme activity was detected in brain (FIG. 8).

[7] = system: expression of luciferase from AAV9-Lxp3.3-Gluc virus; assay: AAV9-mediated luciferase (Gluc) expression in plasma of mice pre-treated with aspirin at different doses (Example 2); assay type: in vivo, C57BL/6J mice
Method: as §6
Blood samples of mice were collected by retro-orbital bleeding. […] The contents of IFN-α and IFN-β were determined by using Mouse IFN-β ELISA kit (720131-2, Shanghai Mlbio Co., Ltd.), LEGEND MAX™ Mouse IFN-β ELISA Kit (439407, BioLegend), and Mouse IFN-α ELISA kit (706291-2, Shanghai Mlbio Co., Ltd.).
as §4

[8] = system: expression of luciferase from AAV9-Lxp3.3-Gluc; assay: Luciferase expression after AAV9-Lxp3.3-Gluc injection in aspirin-treated mice (Example 3); assay type: in vivo, C57BL/6J mice
Method: as §1, §4, §5

[9] = system: IFN-α; assay: Serum IFN-α ELISA after AAV8, AAV9 or AAV843 injection in aspirin-treated mice (Example 4); assay type: in vivo, C57BL/6J mice
Method: as §1, §2, §3

[10] = system: expression of luciferase from AAV843-Lxp3.3-Gluc; assay: Luciferase expression after AAV843-Lxp3.3-Gluc injection in aspirin-treated mice (Example 3); assay type: in vivo, C57BL/6J mice
Method: as §1, §4, §5

[11] = system: Gluc expression from AAV9-CB-Gluc in liver; assay: Gluc mRNA and enzymatic activity in liver after AAV9-CB-Gluc with aspirin (Example 6); assay type: in vivo, mice
Method: as §7

## CC(=O)Oc1ccccc1C(=O)O [aspirin, Acetylsalicylic acid]
[1]; after AAV8 injection, aspirin 50 mg/kg 7 days (FIG. 4B)
  IFN-β level in the control group versus the aspirin treatment group: always significantly higher than that in the aspirin treatment group
[1]; after AAV9 injection, aspirin 50 mg/kg 7 days, Day 1 to Day 31, significantly different from control Day 1 to Day 23 (FIG. 5B)
  IFN-β level: maintained at a low level
[1]; after AAV843 injection, Day 31, aspirin treatment vs control group (FIG. 6B)
  IFN-β level: no significant difference
[1]; after AAV843 injection, aspirin 50 mg/kg 7 days, vs control group, before Day 31 (FIG. 6B)
  IFN-β level: significantly lower than those in the control group
[2]
  expression level of the transgene: increase the expression level of the transgene
[3]; aspirin 50 mg/kg 7 consecutive days, AAV8-Lxp3.3-Gluc 5×10^12 vg/kg tail vein, vs control (FIG. 3A)
  transduction in vivo (expression of luciferase): remarkably promote
[3]; aspirin 50 mg/kg 7 days, AAV8-Lxp3.3-Gluc, control groups also peaked on Day 15
  day of peak expression of luciferase after AAV injection: 15 days
[4]; aspirin 50 mg/kg
  level of IFN-α on Day 3: significantly lower
[4]; aspirin 100 mg/kg
  level of IFN-α on Day 3: significantly lower
[5]; aspirin 50 mg/kg simultaneously with AAV9-CB-Gluc, 15 days after AAV (FIG. 7A)
  mRNA level of Gluc, up-regulation vs non-treatment group: 2.95 fold
[5]; aspirin 50 mg/kg simultaneously with AAV9-CB-Gluc, 15 days after AAV
  enzymatic activity level of Gluc, up-regulation vs non-treatment group: 3.55 fold
[5]; pre-injection of aspirin 50 mg/kg i.p. 7 days, AAV9-CB-Gluc 5×10^13 vg/kg day 8, 15 days after AAV, p<0.01 (FIG. 7A)
  mRNA level of Gluc, up-regulation vs non-treatment group: 5.5 fold
[5]; pre-injection of aspirin 50 mg/kg i.p. 7 days, AAV9-CB-Gluc 5×10^13 vg/kg day 8, 15 days after AAV
  enzymatic activity level of Gluc, up-regulation vs non-treatment group: 7.13 fold
[6]; aspirin pre-treatment (50 mg/kg) + AAV9-CB-IDS 3×10^13 vg/kg, one month after injection (FIG. 8)
  IDS enzyme activity in brain vs wild type mice group: even higher than that of the wild type mice group
[6]; aspirin pre-treatment + AAV9-CB-IDS 3×10^13 vg/kg vs AAV9-CB-IDS alone at 3×10^13 vg/kg (p<0.05) or 10^14 vg/kg, one month (FIG. 8)
  IDS enzyme activity in brain vs group receiving no aspirin but only AAV9-CB-IDS: significantly higher
[7]; 100 mg/kg of aspirin i.p. 7 days before AAV9-Lxp3.3-Gluc 5×10^12 vg/kg i.v., compared with other doses (FIG. 1)
  expression level of luciferase: highest expression level
[7]; aspirin i.p. 7 consecutive days at 1, 15, 30, 50, 100 mg/kg before AAV9-Lxp3.3-Gluc 5×10^12 vg/kg i.v., comparison across dose groups (FIG. 1)
  expression level of luciferase: dose dependent increase
[8]; aspirin 50 mg/kg 7 consecutive days, AAV9-Lxp3.3-Gluc 5×10^12 vg/kg tail vein, vs control (FIG. 3B)
  transduction in vivo (expression of luciferase): remarkably promote
[8]; aspirin 50 mg/kg 7 days, AAV9-Lxp3.3-Gluc, control groups also peaked on Day 15
  day of peak expression of luciferase after AAV injection: 15 days
[9]; after AAV8 injection, aspirin 50 mg/kg 7 days, control significantly higher except Day 31 (FIG. 4A)
  IFN-α level: maintained at a relatively low level
[9]; after AAV9 injection, aspirin 50 mg/kg 7 days, vs control group (FIG. 5A)
  IFN-α level: significantly lower than that in the control group
[9]; after AAV843 injection, Day 31, aspirin treatment vs control group (FIG. 6A)
  IFN-α level: no significant difference
[9]; after AAV843 injection, aspirin 50 mg/kg 7 days, vs control group, before Day 31 (FIG. 6A)
  IFN-α level: significantly lower than those in the control group
[10]; aspirin 50 mg/kg 7 consecutive days, AAV843-Lxp3.3-Gluc 5×10^12 vg/kg tail vein, vs control (FIG. 3C)
  transduction in vivo (expression of luciferase): remarkably promote
[10]; aspirin 50 mg/kg 7 days, AAV843-Lxp3.3-Gluc, control groups also peaked on Day 15
  day of peak expression of luciferase after AAV injection: 15 days
[11]; aspirin 50 mg/kg simultaneously with AAV9-CB-Gluc (FIG. 7C)
  mRNA level of Gluc vs non-treatment group: even lower than that of the non-treatment group
[11]; aspirin 50 mg/kg simultaneously with AAV9-CB-Gluc (FIG. 7D)
  level of enzymatic activity of Gluc vs non-treatment group: not significantly different
[11]; pre-injection of aspirin 50 mg/kg i.p. 7 days, AAV9-CB-Gluc 5×10^13 vg/kg, p<0.01 (FIG. 7D)
  level of enzymatic activity of Gluc, up-regulation vs non-treatment group: 1.95 fold
[11]; pre-injection of aspirin 50 mg/kg i.p. 7 days, AAV9-CB-Gluc 5×10^13 vg/kg, p<0.05 (FIG. 7C)
  level of mRNA of Gluc, up-regulation vs non-treatment group: 1.43 fold
